Experimental findings from US12559506B2, “Indazole based compounds and associated methods of use” (Arvinas Operations, Inc., priority 2021, dated 2026) are described below.

Where two headings read alike, the source gives them in different places. Bounds are passed on as bounds.

The target of assay [1] is T1, wildtype LRRK2 (Homo sapiens, UniProt Q5S007).
T1 construct: expressed in transfected cells; host or cells: HEK293 (ATCC CRL-1573), transient transfection, mammalian expression vector with ubiquitin promoter
T1 sequence (Q5S007 whole entry): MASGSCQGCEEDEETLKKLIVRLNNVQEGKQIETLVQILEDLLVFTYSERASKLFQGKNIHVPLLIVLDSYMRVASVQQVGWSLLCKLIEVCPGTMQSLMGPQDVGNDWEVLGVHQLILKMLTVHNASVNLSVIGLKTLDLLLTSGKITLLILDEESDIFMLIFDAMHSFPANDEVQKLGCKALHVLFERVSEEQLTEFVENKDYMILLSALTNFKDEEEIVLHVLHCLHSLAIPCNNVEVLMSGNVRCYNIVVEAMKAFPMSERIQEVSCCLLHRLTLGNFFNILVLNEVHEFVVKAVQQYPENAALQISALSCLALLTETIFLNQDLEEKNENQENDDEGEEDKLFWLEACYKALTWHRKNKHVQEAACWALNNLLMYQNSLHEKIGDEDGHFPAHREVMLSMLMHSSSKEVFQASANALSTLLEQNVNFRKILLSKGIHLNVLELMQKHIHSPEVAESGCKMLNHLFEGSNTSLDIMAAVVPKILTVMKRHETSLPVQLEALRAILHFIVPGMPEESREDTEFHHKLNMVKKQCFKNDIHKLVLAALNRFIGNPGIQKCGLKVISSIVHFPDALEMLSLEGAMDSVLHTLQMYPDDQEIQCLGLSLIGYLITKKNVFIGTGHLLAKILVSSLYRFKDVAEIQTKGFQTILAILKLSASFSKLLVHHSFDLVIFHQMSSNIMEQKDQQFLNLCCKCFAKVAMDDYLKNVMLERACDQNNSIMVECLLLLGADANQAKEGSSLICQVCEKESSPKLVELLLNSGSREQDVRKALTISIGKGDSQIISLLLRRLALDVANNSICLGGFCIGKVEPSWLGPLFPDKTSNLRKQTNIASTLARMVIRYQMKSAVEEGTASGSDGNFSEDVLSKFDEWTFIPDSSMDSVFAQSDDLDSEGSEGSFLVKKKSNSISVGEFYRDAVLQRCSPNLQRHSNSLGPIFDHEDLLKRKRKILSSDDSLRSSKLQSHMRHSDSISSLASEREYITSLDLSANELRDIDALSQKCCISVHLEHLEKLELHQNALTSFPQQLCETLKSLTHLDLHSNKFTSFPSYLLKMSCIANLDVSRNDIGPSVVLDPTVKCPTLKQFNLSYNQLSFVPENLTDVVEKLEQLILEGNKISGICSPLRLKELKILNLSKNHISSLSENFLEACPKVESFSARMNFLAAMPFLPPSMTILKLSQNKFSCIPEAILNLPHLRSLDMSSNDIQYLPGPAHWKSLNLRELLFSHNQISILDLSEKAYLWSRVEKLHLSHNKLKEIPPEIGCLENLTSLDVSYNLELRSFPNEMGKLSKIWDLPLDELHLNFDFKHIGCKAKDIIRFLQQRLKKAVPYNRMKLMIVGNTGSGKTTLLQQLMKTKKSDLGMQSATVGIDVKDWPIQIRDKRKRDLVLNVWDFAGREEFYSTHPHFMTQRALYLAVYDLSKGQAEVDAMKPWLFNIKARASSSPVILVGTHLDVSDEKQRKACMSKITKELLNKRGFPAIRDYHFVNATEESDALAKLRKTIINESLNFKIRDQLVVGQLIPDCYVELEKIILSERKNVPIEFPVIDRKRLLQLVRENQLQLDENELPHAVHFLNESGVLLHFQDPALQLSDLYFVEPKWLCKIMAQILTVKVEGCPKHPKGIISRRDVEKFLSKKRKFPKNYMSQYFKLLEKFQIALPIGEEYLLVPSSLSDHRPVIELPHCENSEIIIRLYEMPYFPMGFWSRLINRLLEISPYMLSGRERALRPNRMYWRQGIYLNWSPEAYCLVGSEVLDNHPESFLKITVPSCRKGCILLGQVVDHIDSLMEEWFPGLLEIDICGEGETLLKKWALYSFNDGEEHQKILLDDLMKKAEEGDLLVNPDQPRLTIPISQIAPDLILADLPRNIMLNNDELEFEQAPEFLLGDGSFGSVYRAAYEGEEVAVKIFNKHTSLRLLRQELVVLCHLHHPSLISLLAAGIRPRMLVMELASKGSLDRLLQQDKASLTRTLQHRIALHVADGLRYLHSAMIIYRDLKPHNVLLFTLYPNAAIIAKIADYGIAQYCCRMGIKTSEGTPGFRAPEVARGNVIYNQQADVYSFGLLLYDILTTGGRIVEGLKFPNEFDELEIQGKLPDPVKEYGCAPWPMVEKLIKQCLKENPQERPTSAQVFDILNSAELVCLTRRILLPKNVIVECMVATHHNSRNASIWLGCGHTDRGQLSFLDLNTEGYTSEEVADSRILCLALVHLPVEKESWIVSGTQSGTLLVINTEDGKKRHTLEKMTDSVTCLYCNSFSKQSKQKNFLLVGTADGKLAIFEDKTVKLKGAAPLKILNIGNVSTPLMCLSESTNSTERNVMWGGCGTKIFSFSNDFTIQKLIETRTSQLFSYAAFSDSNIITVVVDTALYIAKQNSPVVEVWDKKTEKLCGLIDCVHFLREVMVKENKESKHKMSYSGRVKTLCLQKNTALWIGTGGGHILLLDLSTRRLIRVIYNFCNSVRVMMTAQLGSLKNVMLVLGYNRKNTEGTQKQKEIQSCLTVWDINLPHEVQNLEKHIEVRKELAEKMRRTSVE
As to the kind of experiment: LRRK2 degradation assay, HiBit-tagged wildtype LRRK2 expressed from plasmid in HEK293 cells (Nano-Glo Dual-Luciferase). Type of assay: cell-based. The settings on record: 24 hours; for Dmax: read-out: **WT Dmax (%); for DC50: read-out: *WT DC50. An outline of the steps:
(§1)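 Degradation read as Nano-Glo HiBiT signal over firefly luciferase (cell number/viability) after 24 h compound exposure of transiently transfected HEK293 expressing C-terminally HiBiT-tagged wildtype or G2019S LRRK2. Data as % DMSO; DC50/Dmax fitted per plate, triplicate plates repeated twice.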
Background: HiBiT is a short tag that completes a luciferase, so light tracks the accessible tagged protein.

For assay [2], the target named is T2, G2019S LRRK2 (Homo sapiens, UniProt Q5S007, G2019S).
T2 construct: expressed in transfected cells; host or cells: HEK293 (ATCC CRL-1573), transient transfection, mammalian expression vector with ubiquitin promoter
T2 sequence (Q5S007 whole entry G2019S): as the sequence (Q5S007 whole entry) above, with G2019S counted along it
Put plainly: LRRK2 degradation assay, HiBit-tagged G2019S LRRK2 expressed from plasmid in HEK293 cells (Nano-Glo Dual-Luciferase). The settings on record: 24 hours. The class given is cell-based. Summed up:
as §1

The mark [3] stands for this setting: HiBit-tagged wildtype LRRK2, HEK293 cells.
The mark [4] stands for this setting: HiBit-tagged G2019S LRRK2, HEK293 cells.
[5] abbreviates: HiBit-tagged wildtype LRRK2 in HEK293 cells.
[6] abbreviates: HiBit-tagged G2019S LRRK2 in HEK293 cells.

As a reminder, the Dmax is the greatest extent of degradation seen. The DC50 is the concentration giving 50% degradation. In the case of `CC1(Oc2ccc3[nH]nc(-c4cc(N5CCO[C@H](CN6CCN(CC7CCN(c8ccc9c(c8)C(=O)N(C8CCC(=O)NC8=O)C9=O)CC7)CC6)C5)ncn4)c3c2)CC1` (stereo partly drawn) [Compound 152, 2-(2,6-dioxo-3-piperidyl)-5-[4-[[4-[[(2R)-4-[6-[5-(1-methylcyclopropoxy)-1H-indazol-3-yl]pyrimidin-4-yl]morpholin-2-yl]methyl]piperazin-1-yl]methyl]-1-piperidyl]isoindoline-1,3-dione], the Dmax in assay [1] (setting [3]) and in assay [2] (setting [4]) was less than 50% throughout. In addition, the DC50 in assay [1] (setting [3]) and in assay [2] (setting [4]) was less than 10 nM each time.
Regarding `CC1(Oc2ccc3[nH]nc(-c4cc(N5CCN(CC(F)(F)C6CCN(CC7CCN(c8cccc9c8C(=O)N(C8CCC(=O)NC8=O)C9=O)CC7)CC6)CC5)ncn4)c3c2)CC1` (stereo not shown) [Compound 148, 4-[4-[[4-[1,1-difluoro-2-[4-[6-[5-(1-methylcyclopropoxy)-1H-indazol-3-yl]pyrimidin-4-yl]piperazin-1-yl]ethyl]-1-piperidyl]methyl]-1-piperidyl]-2-(2,6-dioxo-3-piperidyl)isoindoline-1,3-dione], in assay [1] (setting [5]), the Dmax is less than 50% and the DC50 fell in the range of 10 to 50 nM. In assay [2] (setting [6]), this molecule returned a DC50 of 10 to 50 nM and a Dmax of 50 to 70%.
Take `CC1(Oc2ccc3[nH]nc(-c4cc(N5CCN(CC6CCN(CCCCNc7cccc8c7CN(C7CCC(=O)NC7=O)C8=O)CC6)CC5)ncn4)c3c2)CC1` (stereo not shown) [Compound 143, 3-[4-[4-[4-[[4-[6-[5-(1-methylcyclopropoxy)-1H-indazol-3-yl]pyrimidin-4-yl]piperazin-1-yl]methyl]-1-piperidyl]butylamino]-1-oxo-isoindolin-2-yl]piperidine-2,6-dione]: in assay [1] (setting [5]), the maximal degradation (Dmax) is less than 50% and the DC50 lay within 10 to 50 nM. In assay [2] (setting [6]), this molecule came in with a DC50 of 10 to 50 nM and a Dmax of 50 to 70%.
Turning to `CC1(Oc2ccc3[nH]nc(-c4cc(N5CCC(O[C@H]6CCN(CC7CCN(c8ccc9c(c8)C(=O)N(C8CCC(=O)NC8=O)C9=O)CC7)C6)CC5)ncn4)c3c2)CC1` (stereo partly drawn) [Compound 117, 2-(2,6-dioxopiperidin-3-yl)-5-(4-{[(3S)-3-[(1-{6-[5-(1-methylcyclopropoxy)-1H-indazol-3-yl]pyrimidin-4-yl}piperidin-4-yl)oxy]pyrrolidin-1-yl]methyl}piperidin-1-yl)-2,3-dihydro-1H-isoindole-1,3-dione], the Dmax in assay [1] (setting [5]) and in assay [2] (setting [6]) was less than 50% in each case. Further, the DC50 in assay [1] (setting [5]) and in assay [2] (setting [6]) was less than 10 nM in each case.
As to `CC1(Oc2ccc3[nH]nc(-c4cc(N5CCN(C[C@H]6CC[C@H](CN7CCN(c8ccc9c(c8)C(=O)N(C8CCC(=O)NC8=O)C9=O)CC7)CC6)CC5)ncn4)c3c2)CC1` (stereo partly shown) [Compound 101, 2-(2,6-dioxo-3-piperidyl)-5-[4-[[4-[[4-[6-[5-(1-methylcyclopropoxy)-1H-indazol-3-yl]pyrimidin-4-yl]piperazin-1-yl]methyl]cyclohexyl]methyl]piperazin-1-yl]isoindoline-1,3-dione], in assay [1] (setting [5]), the Dmax fell in the range of 50 to 70% and the DC50 lay within 10 to 50 nM. In assay [2] (setting [6]), this molecule came in with a DC50 of less than 10 nM and a Dmax of less than 50%.
For `CC1(Oc2ccc3[nH]nc(-c4cc(N5CCN(CC6CCN(CC7CCN(c8ccc9c(c8)C(=O)N(C8CCC(=O)NC8=O)C9=O)CC7)CC6)CC5)ncn4)c3c2)CC1` (stereo not shown) [Compound 76, 2-(2,6-dioxo-3-piperidyl)-5-[4-[[4-[[4-[6-[5-(1-methylcyclopropoxy)-1H-indazol-3-yl]pyrimidin-4-yl]piperazin-1-yl]methyl]-1-piperidyl]methyl]-1-piperidyl]isoindoline-1,3-dione] the same measures were less than 50%, less than 10 nM, less than 10 nM and 50 to 70%.
In the same order, the values of `C[C@H]1CN(c2cc(-c3n[nH]c4ccc(OC5(C)CC5)cc34)ncn2)CCN1CCN1CCN(CC2CCN(c3ccc4c(c3)C(=O)N(C3CCC(=O)NC3=O)C4=O)CC2)CC1` (stereo partly drawn) [Compound 55, 2-(2,6-dioxopiperidin-3-yl)-5-{4-[(4-{2-[(2S)-2-methyl-4-{6-[5-(1-methylcyclopropoxy)-1H-indazol-3-yl]pyrimidin-4-yl}piperazin-1-yl]ethyl}piperazin-1-yl)methyl]piperidin-1-yl}-2,3-dihydro-1H-isoindole-1,3-dione] are no less than 70%, less than 10 nM, less than 10 nM and no less than 70%.
In the same order, the values of `CC1(Oc2ccc3[nH]nc(-c4cc(N5CCC(CN6CC[C@@H](OC7CCN(c8ccc9c(c8)C(=O)N(C8CCC(=O)NC8=O)C9=O)CC7)C6)CC5)ncn4)c3c2)CC1` (stereo partly drawn) [Compound 119, 2-(2,6-dioxopiperidin-3-yl)-5-(4-{[(3R)-1-[(1-{6-[5-(1-methylcyclopropoxy)-1H-indazol-3-yl]pyrimidin-4-yl}piperidin-4-yl)methyl]pyrrolidin-3-yl]oxy}piperidin-1-yl)-2,3-dihydro-1H-isoindole-1,3-dione] are less than 50%, less than 10 nM, less than 10 nM and less than 50%.
As for `CC1(Oc2ccc3[nH]nc(-c4cc(N5CCN(C[C@H]6CN(CC7CCN(c8ccc9c(c8)C(=O)N(C8CCC(=O)NC8=O)C9=O)CC7)CCO6)CC5)ncn4)c3c2)CC1` (stereo partly drawn) [Compound 157, 2-(2,6-dioxopiperidin-3-yl)-5-(4-{[(2S)-2-[(4-{6-[5-(1-methylcyclopropoxy)-1H-indazol-3-yl]pyrimidin-4-yl}piperazin-1-yl)methyl]morpholin-4-yl]methyl}piperidin-1-yl)-2,3-dihydro-1H-isoindole-1,3-dione], in assay [1] (setting [3]), the Dmax lay in the range of 50 to 70% and the DC50 was less than 10 nM. Also, in assay [2] (setting [4]), the DC50 was less than 10 nM and the Dmax is no less than 70%.
Regarding `CC1(Oc2ccc3n[nH]c(-c4cc(N5CCN(Cc6ccc(CN7CCN(c8ccc9c(c8)C(=O)N(C8CCC(=O)NC8=O)C9=O)CC7)nn6)CC5)ncn4)c3c2)CC1` (stereo not shown) [Compound 172, 2-(2,6-dioxo-3-piperidyl)-5-[4-[[6-[[4-[6-[5-(1-methylcyclopropoxy)-2H-indazol-3-yl]pyrimidin-4-yl]piperazin-1-yl]methyl]pyridazin-3-yl]methyl]piperazin-1-yl]isoindoline-1,3-dione], in assay [1] (setting [3]), the Dmax fell in the range of 50 to 70% and the DC50 was less than 10 nM. In assay [2] (setting [4]), this molecule gave a DC50 of less than 10 nM and a Dmax of 50 to 70%.
Consider `CC1(Oc2ccc3[nH]nc(-c4cc(N5CCO[C@@H](CCN6CCN(CC7CCN(c8ccc9c(c8)C(=O)N(C8CCC(=O)NC8=O)C9=O)CC7)CC6)C5)ncn4)c3c2)CC1` (single isomer, unassigned) [Compound 154], for which the Dmax in assay [1] (setting [3]) and in assay [2] (setting [4]) was 50 to 70% throughout. In addition, the DC50 in assay [1] (setting [3]) and in assay [2] (setting [4]) was less than 10 nM in each case.
With `CC1(Oc2ccc3[nH]nc(-c4cc(N5CCC(CC6CCN(C(=O)C7CCN(c8ccc9c(c8)C(=O)N(C8CCC(=O)NC8=O)C9=O)CC7)CC6)CC5)ncn4)c3c2)CC1` (stereo not shown) [Compound 92, 2-(2,6-dioxo-3-piperidyl)-5-[4-[4-[[1-[6-[5-(1-methylcyclopropoxy)-1H-indazol-3-yl]pyrimidin-4-yl]-4-piperidyl]methyl]piperidine-1-carbonyl]-1-piperidyl]isoindoline-1,3-dione], in assay [1] (setting [5]), the Dmax was in the range of 50 to 70% and the DC50 was less than 10 nM. Also, in assay [2] (setting [6]), the 50% degradation concentration (DC50) is 10 to 50 nM and the Dmax fell in the range of 50 to 70%.
Regarding `CC1(Oc2ccc3[nH]nc(-c4cc(N5CCN(C[C@H]6CCN(CC7CCN(c8ccc9c(c8)C(=O)N(C8CCC(=O)NC8=O)C9=O)CC7)C(=O)C6)CC5)ncn4)c3c2)CC1` (single isomer, unassigned) [Compound 104], in assay [1] (setting [5]), the greatest degradation seen (Dmax) fell in the range of 50 to 70% and the DC50 was less than 10 nM. In assay [2] (setting [6]), this molecule had a DC50 of less than 10 nM and a Dmax of less than 50%.
As for `CC1(Oc2ccc3[nH]nc(-c4ccnc(N5CCC(C(=O)N6CCC(CN7CCN(c8ccc9c(c8)C(=O)N(C8CCC(=O)NC8=O)C9=O)CC7)CC6)CC5)c4)c3c2)CC1` (stereo not shown) [Compound 87, 2-(2,6-dioxo-3-piperidyl)-5-[4-[[1-[1-[4-[5-(1-methylcyclopropoxy)-1H-indazol-3-yl]-2-pyridyl]piperidine-4-carbonyl]-4-piperidyl]methyl]piperazin-1-yl]isoindoline-1,3-dione], in assay [1] (setting [5]), the Dmax was less than 50% and the DC50 was less than 10 nM. In assay [2] (setting [6]), the DC50 was less than 10 nM and the Dmax was less than 50%.
In the case of `C[C@H]1CN(c2cc(-c3n[nH]c4ccc(OC5(C)CC5)cc34)ccn2)CCN1CC1(F)CCN(CC2CCN(c3ccc4c(c3)C(=O)N(C3CCC(=O)NC3=O)C4=O)CC2)CC1` (stereo partly drawn) [Compound 81, 2-(2,6-dioxopiperidin-3-yl)-5-{4-[(4-fluoro-4-{[(2S)-2-methyl-4-{4-[5-(1-methylcyclopropoxy)-1H-indazol-3-yl]pyridin-2-yl}piperazin-1-yl]methyl}piperidin-1-yl)methyl]piperidin-1-yl}-2,3-dihydro-1H-isoindole-1,3-dione], in assay [1] (setting [5]), the Dmax was less than 50% and the DC50 was less than 10 nM. In assay [2] (setting [6]), the DC50 was less than 10 nM and the Dmax was less than 50%.
For `CC1(Oc2ccc3[nH]nc(-c4cc(N5CCN(C[C@@H]6CN(CC7CCN(c8ccc9c(c8)C(=O)N(C8CCC(=O)NC8=O)C9=O)CC7)CCO6)CC5)ncn4)c3c2)CC1` (stereo partly drawn) [Compound 156, 2-(2,6-dioxo-3-piperidyl)-5-[4-[[(2R)-2-[[4-[6-[5-(1-methylcyclopropoxy)-1H-indazol-3-yl]pyrimidin-4-yl]piperazin-1-yl]methyl]morpholin-4-yl]methyl]-1-piperidyl]isoindoline-1,3-dione], in assay [1] (setting [3]), the Dmax was in the range of 50 to 70% and the DC50 was less than 10 nM. In assay [2] (setting [4]), this molecule registered a DC50 of less than 10 nM and a Dmax of less than 50%.
